Earlier results as cited in article PMC5941251 (Molecular Pharmaceutics, 2018).

risk of anaphylactic shock: 0.05–0.2%
Structure (SMILES): CC1(C)C(/C=C/C=C/C=C/C=C2\N(CCCCS(=O)(=O)O)c3ccc4ccccc4c3C2(C)C)=[N+](CCCCS(=O)(=O)[O-])c2ccc3ccccc3c21 [ICG, indocyanine green]
